Assay results reported in patent US11655468B2, “Methods and compositions of chemically modified phage libraries” (priority 2018, dated 2023).
Entries after “also recorded” stand apart in the source; their conditions may differ. Read-outs that look alike come from different tables or passages of the source. Non-standard residues stand in square brackets, D forms with d. Residues, ends and D or L forms follow the SMILES beside them. *: point of attachment. X2 = O=C1OC2(c3ccc(C(=O)*)cc31)c1cc(Br)c(O)c(Br)c1Oc1c2cc(Br)c(O)c1Br; 5FAM = O=C1OC2(c3ccc(O)cc3Oc3cc(O)ccc32)c2ccc(C(=O)*)cc21; X1 = CC(=O)c1ccc(OCCCNC(=O)C*)cc1B(O)O; Dap = NC[C@H](N)C(=O)O

Columns and labels:
[1] = system: S. aureus; format: cell-based, S. aureus (ATCC 6538); conditions: for S. aureus cell death by controls: 1 μM and 2 μM, photoirradiation
Protocol: (§1) Each bacterial strain was grown to an OD600˜0.7, washed and diluted with PBS (pH 7.4). The cells (˜1×10^8 cfu/mL) were incubated with eosin-conjugated peptides and various controls for 15 minutes. Half of the bacterial suspension was removed and placed in a 96-well plate (Corning 3595). The well was subjected to photoirradiation on the Zeiss microscope using the 20× objective and fluorescein filter to emit blue light for 15 minutes. Cells were diluted in LB media, spread on LB agar plates and incubated overnight at 37° C. The A. baumannii (LOS−) strain was spread on LB agar (+10 μg/mL polymyxin b) and incubated for 24 hours. The amount of cell killing was calculated by comparing the amount of colonies of treated bacteria to an untreated PBS control. All experiments were repeated and the average cell killing of two trials was plotted.

[2] = system: LOS− A. baumannii; test: Photoinactivation of bacteria, A. baumannii (LOS−); format: cell-based, A. baumannii (AB5075 LOS−); conditions: for A. baumannii (LOS−) cell death by controls: at these concentrations, photoirradiation (FIG. 5C)
Protocol: as §1

[3] = system: S. aureus; test: Flow cytometry analysis of S. aureus staining by FAM-labeled peptides; format: cell-based, S. aureus (ATCC 6538); conditions: for S. aureus staining of control peptides: 1 μM peptide, 1 mg/mL BSA (FIG. 2C)
Protocol: (§2) Each bacterial strain was grown to an OD600˜0.5, washed and diluted with PBS (pH 7.4). The cells (˜1×10^7 cfu/mL) were incubated with various concentrations of FAM-labeled peptide with or without BSA in PBS. After incubation for 1 hour, samples were subjected to cytometric analysis. Data obtained was analyzed via BD FACSDiva software and median fluorescent values were computed from the generated histograms. All flow cytometry experiments were repeated and generated consistent results (see FIG. 14).

[4] = system: A. baumannii (LOS−); test: Flow cytometry analysis of A. baumannii (LOS−) staining; format: cell-based, A. baumannii (AB5075 LOS−); conditions: for binding of negative controls to A. baumannii (LOS−) compared with KAM8: 1 μM, 1 mg/mL BSA (FIG. 21B)
Protocol: as §2

[5] = system: B. subtilis; test: Photoinactivation of bacteria, B. subtilis; format: cell-based; conditions: 2 μM peptide followed by photoirradiation
Protocol: as §1

[6] = system: Jurkat cells; conditions: MTT, 24 hrs, with or without photoirradiation
Protocol: Jurkat cells were cultured in RPMI 1640 (containing 10% FBS, 2 mM glutamine, 1% Penicillin/Streptomycin) and maintained at 5×10^5 cells/mL. Cells were diluted in RPMI and distributed to a 96-well plate (Corning 3595) at 50,000 cells/well (200 μL/well). […] A positive control for viability of DMSO treated cells along with a positive control for cytotoxicity of camptothecin at 50 μM (5 mM DMSO stock) were included. For photoirradiation, the cells were incubated with the compound of interest for 15 minutes, each well was irradiated for 15 minutes (see photoinactivation protocol-paragraph 0053) and the plate was returned to the incubator for the remainder of the 24 hour incubation. Cells were centrifuged for 5 minutes (180 rcf) and the supernatant culture medium was carefully removed. 100 μL of 3-(4,5-dimethylthiazol-2-yl)-2,5-diphenyltetrazolium bromide (MTT, 0.5 mg/mL in RPMI) was added to each well and incubated for 4 hours followed by the addition of 10% SDS in 0.01 M HCl (100 μL) and incubation overnight.
(§5) All incubations were performed at 37° C. and 5% CO2. Absorbance readings were measured at 570 nm and cell viability was normalized to the DMSO control as an average of three trials for non-irradiated samples and an average of two trials for photoirradiated samples with standard deviations.

[7] = system: HEK293T cells; conditions: MTT, 24 hrs, with or without photoirradiation
Protocol: HEK293T cells were grown in complete DMEM (containing 10% FBS, 2 mM glutamine and 1% Penicillin/Streptomycin) to about 80% confluency in a 150 mm dish. Cells were removed from the plate with 0.25% trypsin protease solution (containing EDTA) at 37° C. for 5 minutes and pelleted (3,500 rpm, 5 minutes). Cells were diluted in DMEM, distributed to a 96-well plate (Corning 3595) at 30,000 cells/well (100 μL/well) and incubated for 24 hours to allow for cell adherence. 1 μL of 100× DMSO solutions were added to each well and incubations/photoirradiation were performed as described above. After 24 hours, the supernatant culture medium was carefully removed and the cells were incubated with 100 μL MTT (0.5 mg/mL in RPMI) for 4 hours followed by the addition of 10% SDS in 0.01 M HCl (100 μL) and incubation overnight.
as §5

[8] = system: E. coli; test: Photoinactivation of bacteria, E. coli; format: cell-based; conditions: 2 μM peptide followed by photoirradiation
Protocol: as §1

[9] = system: MRSA; test: Photoinactivation of bacteria, MRSA; format: cell-based, S. aureus (ATCC 43300); conditions: same experimental conditions, photoirradiation (FIG. 19)
Protocol: as §1

[10] = system: wild type A. baumannii (LOS+); test: Fluorescence microscopy and flow cytometry of wild type A. baumannii (LOS+) staining; format: cell-based, A. baumannii (AB5075); conditions: microscopy, same conditions as LOS− strain (legend FIG. 5B: 10 μM for LOS+)
Protocol: as §2
(§3) Each bacterial strain was grown to an OD600˜1.0, washed and diluted with PBS (pH 7.4). The cells (˜1×10^9 cfu/mL) were incubated with various concentrations of TAMRA-labeled peptide with or without BSA in PBS for 1 hour. The same microscopy procedure described was implemented using filter set 20 HE (excitation: BP 546/12, emission: BP 607/80) suitable for detection of TAMRA fluorescence and images were processed consistently using ImageJ software.

[11] = system: A. baumannii (LOS−); test: Fluorescence microscopy of A. baumannii (LOS−) staining; format: cell-based, A. baumannii (AB5075 LOS−); conditions: TAMRA labeled peptide, 2 μM
Protocol: as §3

[12] = system: S. aureus; test: Fluorescence microscopy of S. aureus staining by TAMRA-labeled peptides; format: cell-based, S. aureus (ATCC 6538)
Protocol: as §3

[13] = system: Escherichia coli; test: Flow cytometry and fluorescence microscopy of E. coli staining; format: cell-based
Protocol: as §2, §3

[14] = system: wild-type (LOS+) A. baumannii; test: Photoinactivation of bacteria, A. baumannii (LOS+); format: cell-based, A. baumannii (AB5075); conditions: same conditions, 2 μM, photoirradiation (FIG. 5D)
Protocol: as §1

[15] = system: methicillin-resistant strain of S. aureus (ATCC 43300); test: Fluorescence microscopy of MRSA staining by TAMRA-labeled peptide; format: cell-based; conditions: 2 μM (FIG. 17)
Protocol: as §3

[16] = molecular target: HSA (Homo sapiens, UniProt P02768); test: Fluorescence anisotropy protein binding (HSA); conditions: 500 nM peptide, PBS pH 7.4, 1 hour, high protein concentrations
HSA, sequence (P02768 25-609): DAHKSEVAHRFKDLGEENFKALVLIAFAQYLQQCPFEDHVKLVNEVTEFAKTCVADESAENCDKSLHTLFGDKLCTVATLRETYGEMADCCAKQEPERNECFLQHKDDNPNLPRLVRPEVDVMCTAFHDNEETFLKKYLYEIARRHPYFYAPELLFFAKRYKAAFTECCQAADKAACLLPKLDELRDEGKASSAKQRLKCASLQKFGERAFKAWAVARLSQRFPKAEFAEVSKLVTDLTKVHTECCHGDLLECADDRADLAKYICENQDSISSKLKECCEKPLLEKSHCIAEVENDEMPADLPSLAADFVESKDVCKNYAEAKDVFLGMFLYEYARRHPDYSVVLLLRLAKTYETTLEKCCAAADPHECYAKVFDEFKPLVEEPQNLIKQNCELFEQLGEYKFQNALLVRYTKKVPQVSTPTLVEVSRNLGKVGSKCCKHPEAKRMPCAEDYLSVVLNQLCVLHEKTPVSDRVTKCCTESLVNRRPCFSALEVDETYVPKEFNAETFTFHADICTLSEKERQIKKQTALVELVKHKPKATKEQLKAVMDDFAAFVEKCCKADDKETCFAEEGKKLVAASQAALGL
Protocol: (§4) (A) Flow cytometry comparison of HSA and BSA in enhancing KAM5 binding to S. aureus. (B) Assessing protein binding of KAM5 using fluorescence anisotropy, for which various concentrations of BSA or HSA were delivered to a 96-well plate (Corning 3603) in PBS (pH 7.4). Peptide was added at a final concentration of 500 nM and incubated for 1 hour. Anisotropy values were measured (Ex: 495 nm, Em: 532 nm) and plotted as an average of three trials with standard deviations. Fluorescein was used as a negative control. The results clearly show binding of KAM5 to these serum proteins.

[17] = system: Bacillus subtilis; test: Flow cytometry and fluorescence microscopy of B. subtilis staining; format: cell-based; conditions: up to 10 μM peptide; flow cytometry with 1 mg/mL BSA and microscopy
Protocol: as §2, §3

[18] = molecular target: BSA (Bos taurus, UniProt P02769); test: Fluorescence anisotropy protein binding (BSA); set-up: species or system bovine; conditions: 500 nM peptide, PBS pH 7.4, 1 hour, high protein concentrations
Protocol: as §4

[19] = Aggregation of peptide in flow cytometry samples; format: physicochemical; conditions: concentrations higher than 3 μM

O=C1OC2(c3ccccc31)c1cc(Br)c(O)c(Br)c1Oc1c2cc(Br)c(O)c1Br [eosin, reference compound]
S. aureus cell death by controls [1]: did not elicit cell death | A. baumannii (LOS−) cell death by controls [2]: did not elicit A. baumannii cell death

ACmGPTAKYICmGGGDap* [KAM6]
S. aureus staining of control peptides ([3]; flow cytometry): no bacterial staining | binding of negative controls to A. baumannii (LOS−) compared with KAM8 [4]: much reduced binding

CC(=O)c1ccc(OCCCNC(=O)CSC[C@H](NC(=O)[C@H](C)N)C(=O)N[C@H](C(=O)N[C@@H](CO)C(=O)N2CCC[C@H]2C(=O)N[C@@H](CCCNC(=N)N)C(=O)N[C@@H](CO)C(=O)N[C@@H](Cc2c[nH]cn2)C(=O)N[C@@H](CCC(=O)O)C(=O)N[C@@H](CSCC(=O)NCCCOc2ccc(C(C)=O)c(B(O)O)c2)C(=O)NCC(=O)NCC(=O)NCC(=O)N[C@@H](CNC(=O)c2ccc3c(c2)C(=O)OC32c3cc(Br)c(O)c(Br)c3Oc3c2cc(Br)c(O)c3Br)C(N)=O)C(C)C)cc1B(O)O [KAM5-Eosin, ACmVSPRSHECmGGGDap*] (H-AC(X1)VSPRSHEC(X1)GGG[Dap](X2)-NH2; N-terminus assumed)
cell death of B. subtilis [5]: no significant cell death | mammalian cell toxicity, Jurkat cells [6]: no mammalian cell toxicity | mammalian cell toxicity, HEK 293T cells [7]: no mammalian cell toxicity | cell killing of S. aureus ([1]; 1 μM): 74% | cell killing of S. aureus ([1]; 2 μM): 92% | cell death of E. coli [8]: no significant cell death | cell killing of MRSA compared with S. aureus strain used in selection [9]: comparable percentage of cell killing; also recorded: comparable potency

ACVSPRSHECGGGDap* [KAM5-Cyclic]
S. aureus staining of control peptides ([3]; flow cytometry): little S. aureus staining

CC(=O)c1ccc(OCCCNC(=O)CSC[C@H](NC(=O)[C@H](C)N)C(=O)N[C@H](C(=O)N[C@@H](CC(C)C)C(=O)N2CCC[C@H]2C(=O)N[C@@H](CC(N)=O)C(=O)NCC(=O)N2CCC[C@H]2C(=O)N[C@@H](CCCNC(=N)N)C(=O)N[C@@H](CSCC(=O)NCCCOc2ccc(C(C)=O)c(B(O)O)c2)C(=O)NCC(=O)NCC(=O)NCC(=O)N[C@@H](CNC(=O)c2ccc3c(c2)C(=O)OC32c3ccc(O)cc3Oc3cc(O)ccc32)C(N)=O)[C@@H](C)O)cc1B(O)O [KAM8, ACmTLPNGPRCmGGGDap*] (H-AC(X1)TLPNGPRC(X1)GGG[Dap](5FAM)-NH2; N-terminus assumed)
fluorescence staining of wild type A. baumannii (LOS+) [10]: little fluorescence staining | fluorescence staining of LOS− A. baumannii [11]: bright fluorescence staining | binding to S. aureus ([12]; TAMRA labeled peptide, 2 μM, 1 mg/mL BSA (FIG. 22)): no binding | binding to E. coli ([13]; microscopy, TAMRA labeled peptide, 2 μM, 1 mg/mL BSA (FIG. 22)): no binding | A. baumannii (LOS−) cell death by controls [2]: did not elicit A. baumannii cell death | effect of BSA on binding to A. baumannii (LOS−) ([4]; 1 mg/mL BSA): enhanced bacterial staining

ACmTLPNGPRCmGGGDap* [KAM8-Eosin]
cell killing of LOS− A. baumannii ([2]; 15 min light): > 90% | killing of wild-type (LOS+) A. baumannii [14]: little killing

CC(=O)c1ccc(OCCCNC(=O)CSC[C@H](NC(=O)[C@H](C)N)C(=O)N[C@H](C(=O)N[C@@H](CO)C(=O)N2CCC[C@H]2C(=O)N[C@@H](CCCNC(=N)N)C(=O)N[C@@H](CO)C(=O)N[C@@H](Cc2c[nH]cn2)C(=O)N[C@@H](CCC(=O)O)C(=O)N[C@@H](CSCC(=O)NCCCOc2ccc(C(C)=O)c(B(O)O)c2)C(=O)NCC(=O)NCC(=O)NCC(=O)N[C@@H](CNC(=O)c2ccc3c(c2)C(=O)OC32c3ccc(O)cc3Oc3cc(O)ccc32)C(N)=O)C(C)C)cc1B(O)O [KAM5, ACmVSPRSHECmGGGDap*] (H-AC(X1)VSPRSHEC(X1)GGG[Dap](5FAM)-NH2; N-terminus assumed)
staining of methicillin-resistant S. aureus compared with strain used in phage display [15]: equally potent staining | potency for labeling S. aureus cells compared with KAM14-17 ([3]; flow cytometry (FIG. 18)): superior potency | S. aureus binding potency compared with Hlys-AB1 ([3]; flow cytometry, 1 mg/mL BSA (FIG. 15)): much greater than that of Hlys-AB1 | effect of BSA addition on S. aureus staining ([12]; 2 μM peptide, BSA up to 10 mg/mL): did not inhibit | fluorescence staining of S. aureus cells ([12]; TAMRA labeled peptide, 2 μM): strong fluorescence staining | staining of E. coli ([13]; up to 10 μM peptide, flow cytometry with 1 mg/mL BSA and microscopy): negligible staining | S. aureus cell death by controls [1]: did not elicit cell death | binding to HSA [16]: did show binding | staining of B. subtilis [17]: negligible staining | binding to BSA [18]: did show binding

ACTLPNGPRCGGGDap* [KAM8-Cyclic]
binding of negative controls to A. baumannii (LOS−) compared with KAM8 [4]: much reduced binding

ACAKIFTGCCGGGDap* [KAM14]
aggregation [19]: aggregation at higher concentrations
